Measured values taken from US9526793B1, “Salts of phenylethylamines and inorganic acids and methods of use thereof” (priority 2013, dated 2016).
Where two headings read alike, the source gives them in different places.

Legend:
[1] = Sexual performance of the subject (penile erectile genesis and maintainability); format: in vivo, human; conditions: single oral capsule
Description: Solid dose capsules were prepared as described in Example 3. The subject was given a single capsule containing 2-phenylethylamine nitrate, an admixture of 2-phenylethylamine HCl and NaNO3, or a placebo.
Sexual performance was evaluated in the subject by the relative length of time and number of times they were able to maintain an erection and engage in sexual intercourse (i.e., penile erectile genesis and maintainability) with their partner during a given period.

[2] = Length of time the subject maintained a 5.5 mph pace on an elliptical trainer (athletic performance); format: in vivo, human; conditions: single oral capsule, 600 mg 2-phenylethylamine nitrate or equimolar admixture
Description: (§1) Solid dose capsules (size “00”, gelatin) were prepared containing either 600 mg of 2-phenylethylamine nitrate or equimolar quantities of an admixture of 2-phenylethylamine HCl and sodium nitrate (NaNO3). A placebo filled with an inert substance (200 mesh guar gum) was also prepared. The subject was given a single capsule containing 2-phenylethylamine nitrate, an admixture of 2-phenylethylamine HCl and NaNO3, or the placebo.
After oral administration of the compound, the subject's ability to maintain a speed of about 5.5 mph on an elliptical trainer was measured. The length of time was recorded before the subject became fatigued and was no longer able to maintain this pace (see Table 1). Athletic performance was measured at times soon after administration of the compound before the subject had engaged in significant physical activity that day (at about 9:30 am each day). The subject was blinded to the identity of the capsules.

[3] = Subject-reported duration of euphoria and of vasodilation (drop in systolic blood pressure, sphygmomanometer); format: in vivo, human; conditions: 600 mg oral capsule
Description: as §1
The subject estimated that the effect of the 2-phenylethylamine nitrate lasted substantially longer than the effect of the admixture. For example, the 2-phenylethylamine nitrate produced a sense of euphoria that typically lasted 50% longer than that experienced with the admixture.

[4] = Tolerability of daily oral doses; format: in vivo
[5] = Clinical observation of onset and duration of athletic performance-enhancing effects after oral dose; format: in vivo
[6] = cited from earlier work
[7] = as measured using the HCl salt; cited from earlier work

Structure (SMILES) | Sexual performance after administration ([1]; compared with admixture or placebo) | Reduction of refractory time between erections ([1]; subject, self-reported) [%] | Percent Improvement Compared to Placebo [2] [%] | Time (Minutes) that the subject maintained a 5.5 mph pace on an elliptical ([2]; average of several occasions) [min] | Duration of vasodilation versus the admixture ([3]; measured by drop in systolic blood pressure) | Sense of euphoria: duration longer than that experienced with the admixture ([3]; subject's estimate, versus admixture) [%] | Daily oral dose tolerated without significant side effects [4] [grams] | Time to clinically observable athletic performance-enhancing effects after ingestion ([5]; single dose of 0.100 grams to 0.600 grams) [min] | Time for which athletic performance-enhancing effects are clinically observable ([5]; single, oral dose as low as 0.200 grams) [h] | half-life ([6]; in vivo) [min] | Increase of brain levels when taking an MAO inhibitor ([6]; initial 2-phenylethylamine brain concentration low) [fold] | Increase of brain levels when taking an MAO inhibitor ([6]; initial concentration high) | pKb [7]
NCCc1ccccc1.O=[N+]([O-])O [2-Phenylethylamine Nitrate, 2-phenylethylamine nitrate] | surprising enhancement in their sexual performance | ~35 | 10 | 66 | at least twice as long | 50 | ≤ 3.00 | ≤ 10 | ≤ 6 |  |  |  | 
NCCc1ccccc1 [2-phenylethylamine] |  |  |  |  |  |  |  |  |  | 5 to 10 | ~1000 | 3-4 times | 4.17
